According to US6514949B1, “Method compositions for treating the inflammatory response” (University of Virginia Patent Foundation, priority 1994, dated 2003):

Legend:
TNFα-stimulated PMN = assay: TNF-stimulated PMN adherence to a fibrinogen-coated surface; type: cell-based, human
Description: PMN adherence to fibrinogen was measured as follows as adapted from Hanlon, J. Leukocyte Biol., 50, 43 (1991). Twenty-four well flat-bottomed tissue culture plates were incubated (37° C.) overnight with 0.5 ml of fibrinogen (5 mg/ml) dissolved in 1.5% NaHCO3. The plates were emptied and each well washed 2× with 1 ml of normal saline. The wells were then filled with 1 ml of HBSS-0.1% human serum albumin containing PMN (1×10^6/ml) with and without rhTNFα (1 U/ml), adenosine deaminase (ADA) (1 U/ML), WRC-0474[SHA 211] (10 nM), CGS21680 (30 nM), adenosine (100 nM) and rolipram (100 nM). The plates were incubated for 90 minutes at 37° C. in 5% CO2. Following incubation the tissue culture wells were washed free of non-adherent cells with normal saline. The adherent monolayer of PMN was lysed with 0.1% triton-X, the amount of lactic dehydrogenase (LDH) released from the monolayer assayed (LDH kit, Sigma Co., St. Louis, Mo.), and compared to a standard curve relating the LDH content to PMN numbers.

[1] = test system: TNFα-stimulated adherent human neutrophils; assay: TNFα-stimulated superoxide release of PMN adherent to fibrinogen coated surface; type: cell-based; settings: for superoxide release of TNFα-stimulated adherent PMN: 300 nM combined with rolipram (100 nM), p<0.05, FIG. 5
Description: TNFα-stimulated superoxide release of PMN adherent to a matrix protein (fibrinogen) coated surface. Human PMN (1×10^6/ml) from Ficoll-Hypaque separation were incubated for 90 minutes in 1 ml of Hanks balanced salt solution containing 0.1% human serum albumin, cytochrome c (120 μM), and catalase (0.062 mg/ml) in the presence and absence of rhTNF (1 U/ml), WRC-0474[SHA 211] (10 nM) and rolipram (100 nM) in a tissue culture well which had been coated overnight with human fibrinogen. SOD (200 U/ml) was added to matched samples. The supernatants were iced and centrifuged (2000 g×10 minutes) to remove any remaining suspended cells, and the optical density of the supernatants were read at 550 nm against the matched SOD samples, and the nmoles of SOD-inhibitable superoxide released in 90 minutes were calculated.
Additional effects of adenosine A2A agonists on adherent human neutropbil oxidative activity. The bioactivity of test compounds WRC-0474[SHA 211], WRC-0470, WRC-0090 and WRC-0018 were evaluated according to the following method modified from Sullivan, G. W. et al., Int. J. Immunopharmacol, 17, 793-803 (1995). Neutrophils (1×10^6/ml from Ficoll-Hypaque separation were incubated for 90 minutes in 1 ml of Hanks balanced salt solution containing 0.1% human serum albumin, cytochrome c (120 μM) and catalase (0.062 mg/ml in the presence and absence of rhTNFα (1 U/ml), WRC-0474[SHA 211], WRC-0470, WRC-0090 and WRC-0018 (3-300 nM), and rolipram (100 nM) in a tissue culture well which had been coated overnight with human fibrinogen. The supernatants were iced and centrifuged (200 g×10 min) to remove any remaining suspended cells, and the optical densities of the supernatants were read at 550 nm against matched superoxide dismutase (SOD) (200 U/ml) samples. The nmoles of SOD=inhabitable superoxide released in 90 min were calculated.

Adult wistar rats = assay: Rat model of inflammation (bacterial meningitis): CSF WBC pleocytosis and blood-brain barrier permeability; type: in vivo
Description: Effects of WRC-0470 and rolipram on the extravasation of white blood cells in a rat model of inflammation. Adult wistar rats (approximately 200 g) were anesthetized with intermuscular injections of ketamine and xylazine. Bacteria meningitis (BM) was introduced via intracistemal inoculation of either E. coli strain 026:B6LPS (200 ng), cytokines (IL-1 and TNFα, or LPS plus cytokines). The animals were then infused with rolipram and/or […] over the duration of the experiment using a Harvard pump. CSF (cerebrospinal fluid) and blood was then sampled at 4 h post-inoculation and alterations in BBBP (blood-brain barrier permeability) and WBC (white blood cell) counts were determined. CSF and WBC concentrations were determined with standard hemacytometer methods. For assessment of % BBBP, rats were given an intravenous injection of 5 μCi 125I-labeled bovine serum albumin concomitant with intracistemal inoculation. Equal samples of CSF and blood were read simultaneously in a gamma counter and after subtraction of background radioactivity, % BBBP was calculated by the following formula: % BBBP=(cpm CSF/cpm blood)×100. All statistical tests were performed using Instat biostatistical software to compare the post-inoculation samples of experimental rats with the control rats. The statistical tests used to generate p-values were Student's t-test and ANOVA.

adherent human monocytes = assay: Production of TNFα by purified human adherent monocytes; type: cell-based
Description: Production of TNFα by purified human adherent monocytes. A monocyte rich monolayer (>95% monocytes) was prepared by incubating 1 ml of the mononuclear leukocyte fraction (5×10^5/ml) from a Ficoll-Hypaque separation in wells of a 24 well tissue culture plate (1 hr; 37° C.; 5% CO2). […] The samples were incubated for 4 hr (37° C.; 5% CO2) and the supernatants harvested. Any suspended cells were removed by centrifugation and the cell-free samples frozen (−70° C.). TNFα was assayed in the cell-free supernatants by an ELISA kit (Cistron Biotechnology, Pine Brook, N.J.).

[2] = test system: TNFα-stimulated adherent neutrophil; assay: PMN degranulation (adherent cells), lysozyme release; type: cell-based, human; settings: WRC-0470 300 nM with rolipram 300 nM; P=0.027
Description: PMN degranulation (adherent cells). The following methods were adapted from Sullivan, G. W. and G. L. Mandell, Infect. Inumun., 30, 272-280 (1980). […] The supernatant fluids with any suspended neutrophils were harvested following incubation, centrifuged (2000 ×g for 10 min) to remove any suspended cells and the cell-free supernatants frozen. Release of lysozyme, a component of neutrophil primary and secondary granules was assayed. Lysis of a suspension of Micrococcus lysodeikticus by the “cell-free supernatant” was measured by spectrophotometric analysis ([…]) to determine the amount of release of granule contents to the surrounding medium.

[3] = test system: neutrophils in whole blood; assay: PMN oxidative activity in whole blood; type: cell-based
Description: PMN oxidative activity in whole blood. The following methods were adapted from Rothe, G. A. et al., J. Immunol. Meth., 138, 133-135 (1991). Heparinized whole blood (0.8 ml) was incubated (37°; 30 min) with adenosine deaminase (ADA, 1 U/ml), catalase (14,000 U/ml), ±dihydrorhodamine 123, ±WRC-0470 (3-300 nM), ±rolipram (300 nM) and ±TNFα (10 U/ml). The primed blood samples were stimulated with fMLP (15 min), then iced, the red blood cells lysed with FACS lysing solution (Becton-Dickinson, San Jose, Calif.), washed and the leukocytes resuspended in phosphate-buffered saline (PBS). These samples containing mixed leukocytes were gated for neutrophils by forward and side scatter and the fluorescence of 10,000 neutrophils measured in the FL1 channel of a FACScan (Beckton-Dickinson) fluorescence-activated cell sorter.

CCNC(=O)[C@H]1O[C@@H](n2cnc3c(N)nc(NCCc4ccc(CCC(=O)O)cc4)nc32)[C@H](O)[C@@H]1O [CGS21680]
TNF-stimulated PMN adherence (TNFα-stimulated PMN; 30 nM, in the presence of ADA, TNF control 38%, p=0.004): 30 % adhered

Nc1nc(OCCc2ccc3ccccc3c2)nc2c1ncn2[C@@H]1O[C@H](CO)[C@@H](O)[C@H]1O [WRC-0018]
superoxide release of TNFα-stimulated adherent PMN [1]: synergistically decreased superoxide release

Cc1ccc(CCOc2nc(N)c3ncn([C@@H]4O[C@H](CO)[C@@H](O)[C@H]4O)c3n2)cc1 [WRC-0090]
superoxide release of TNFα-stimulated adherent PMN [1]: synergistically decreased superoxide release

Nc1nc(N/N=C/C2CCCCC2)nc2c1ncn2[C@@H]1O[C@H](CO)[C@@H](O)[C@H]1O [WRC-0470]
blood-brain barrier permeability (% BBBP) (Adult wistar rats; 1.2 μg/kg/hr, rebound effect): returned to control | blood-brain barrier permeability (% BBBP) (Adult wistar rats; 0.01-0.015 μg/kg/hr, p<0.05 as compared to control, FIG. 9): significant response | WBC migrated into the sub-arachnoid space (CSF WBC) (Adult wistar rats; WRC-0470 0.1 μg/kg/hr in combination with rolipram 0.001 μg/kg/hr, FIG. 11): 200±70 WBC/μl | WBC migrated into the sub-arachnoid space (CSF WBC) (Adult wistar rats; WRC-0470 alone (0.1 μg/kg/hr), p<0.050 vs combination): 600±308 WBCs/μl | CSF WBC pleocytosis (Adult wistar rats; infusion 0.005-1.2 μg/kg/hr, p<0.05 as compared to control, FIG. 8): inhibited pleocytosis | endotoxin-stimulated adherent monocyte production of TNFα (adherent human monocytes; ±rolipram, P<0.050, FIGS. 7A and 7B): decreased | decrease of TNFα-stimulated adherent neutrophil degranulation [2]: 67% | superoxide release of TNFα-stimulated adherent PMN [1]: synergistically decreased superoxide release | rank of activity among the four A2A agonists, adherent PMN oxidative activity ([1]; in the presence of rolipram): most active | neutrophil oxidative activity in whole blood ([3]; 30-300 nM with rolipram 300 nM, fMLP or TNFα then fMLP): decreased neutrophil oxidative activity synergistically | oxidative activity of TNFα-primed fMLP-stimulated neutrophils in whole blood ([3]; FIG. 6): decreased oxidative activity

Nc1nc(NCCc2ccc(O)cc2)nc2nc(-c3ccco3)nn12 [ZM241385, 4-(2-[7-amino-2-(2-furyl)[1,2,4]-triazolo[2,3a]-[1,3,5]trazinyl-amino]ethyl)-phenol, reference compound]
antagonism of the effect of WRC-0470 (300 nM) combined with rolipram (300 nM) on TNFα release from monocytes (adherent human monocytes; ZM241385 50 nM, p=0.020, FIG. 7B): significantly inhibited the effect of WRC-0470

Nc1ncnc2c1ncn2[C@@H]1O[C@H](CO)[C@@H](O)[C@H]1O [adenosine]
TNF-stimulated PMN adherence (TNFα-stimulated PMN; 100 nM, p=0.009 compared to TNF in the presence of ADA): 28 % adhered

COc1ccc(C2CNC(=O)C2)cc1OC1CCCC1 (centres unmarked) [rolipram, 4-(3-cyclopentyloxy-4-methoxyphenyl)-2-pyrrolidone, reference compound]
alterations of BBBP (Adult wistar rats; 0.002 μg/kg/hr): no significant effect | inhibition of CSF pleocytosis (Adult wistar rats; 0.01 μg/kg/hr, p<0.05, FIG. 10): 99% | alterations of BBBP (Adult wistar rats; 0.01 or 0.005 μg/kg/hr, p<0.05): significant inhibition | WBC migrated into the sub-arachnoid space (CSF WBC) (Adult wistar rats; rolipram alone (0.001 μg/kg/hr), p<0.050 vs combination): 1,670±1,273 WBC/μl
